Source: patent publication US10336702B2, “Pharmaceutically active compounds” (BERGENBIO ASA, priority 2015, dated 2019)

Legend:
[1] = target: T1, Akt1 (Homo sapiens, UniProt P31749); assay: Akt activation assay (PDK1-mediated activation, LANCE Ultra crosstide TR-FRET), Akt1; assay type: biochemical; settings: read-out: Biological Assay 1 IC50 (nM) Akt1
T1 construct: unspecified tag, removed (detagged) (cleaved yes); purchased SignalChem and Proteros (Akt1); Merck Millipore (PDK1) 14-452 (PDK1); none given for Akt1
How it was run: (§1)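 Human Akt1, Akt2 or Akt3 (SignalChem: 5, 15, 3 nM; Proteros: 5 nM each) was preincubated with compound, then activated by 5 nM PDK1 on PtdIns(3,4,5)P3/DOPS/DOPC vesicles with 100 µM ATP and 100 nM ULight-crosstide (HEPES pH 7.5, 1% DMSO) for 30 min. Product was detected by Eu-anti-phospho-crosstide TR-FRET (665/615 nm), with IC50 from a 4-parameter fit.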

[2] = target: T2, Akt2 (Homo sapiens, UniProt P31751); assay: Akt activation assay (PDK1-mediated activation, LANCE Ultra crosstide TR-FRET), Akt2; assay type: biochemical; settings: read-out: Biological Assay 1 IC50 (nM) Akt2
T2 construct: unspecified tag, removed (detagged) (cleaved yes); purchased SignalChem and Proteros (Akt2); Merck Millipore (PDK1) 14-452 (PDK1); none given for Akt2
How it was run: as §1

[3] = target: T3, Akt3 (Homo sapiens, UniProt Q9Y243); assay: Akt activation assay (PDK1-mediated activation, LANCE Ultra crosstide TR-FRET), Akt3; assay type: biochemical; settings: read-out: Biological Assay 1 IC50 (nM) Akt3
T3 construct: unspecified tag, removed (detagged) (cleaved yes); purchased SignalChem and Proteros (Akt3); Merck Millipore (PDK1) 14-452 (PDK1); none given for Akt3
How it was run: as §1

[4] = target: T4, p-Akt1 in LNCaP cells (Homo sapiens, UniProt P31749); assay: Phospho-Akt cellular SureFire assay, p-Akt1 in LNCaP cells; assay type: cell-based; settings: read-out: Biological Assay 2 IC50 (nM) Akt1 LNCaP
T4 construct: SureFire assays to detect cellular p-Akt1, p-Akt2 and p-Akt3 levels in WM115 cells (Akt2/3) and LNCaP cells (Akt1); endogenous in cells; host or cells: LNCaP (ECACC 89110211)
How it was run: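 LNCaP cells, 5×10^4/well, seeded overnight, switched to 0.1% FBS medium without insulin stimulation, then compound for 15 min at 37 °C (0.3% DMSO). Lysate p-Akt1 (pThr308) by AlphaScreen SureFire, two 2 h incubations at room temperature; IC50 by 4-parameter fit.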

[5] = target: T5, p-Akt2 in WM115 cells (Homo sapiens, UniProt P31751); assay: Phospho-Akt cellular SureFire assay, p-Akt2 in WM115 cells; assay type: cell-based; settings: insulin stimulated, read-out: Biological Assay 2 IC50 (nM) Akt2 WM115
T5 construct: SureFire assays to detect cellular p-Akt1, p-Akt2 and p-Akt3 levels in WM115 cells (Akt2/3) and LNCaP cells (Akt1); endogenous in cells; host or cells: WM115 (ECACC 91061232), insulin-stimulated
How it was run: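 WM115 cells in 0.1% FBS medium stimulated 10 min with 100 nM insulin, then exposed to compound for 15 min at 37° C (0.3% DMSO final). Lysates assayed by AlphaScreen with anti-(pThr308)Akt and isoform-specific total Akt2 antibodies; IC50 from 4-parameter fit.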

[6] = target: T6, p-Akt3 in WM115 cells (Homo sapiens, UniProt Q9Y243); assay: Phospho-Akt cellular SureFire assay, p-Akt3 in WM115 cells; assay type: cell-based; settings: insulin stimulated, read-out: Biological Assay 2 IC50 (nM) Akt3 WM115
T6 construct: SureFire assays to detect cellular p-Akt1, p-Akt2 and p-Akt3 levels in WM115 cells (Akt2/3) and LNCaP cells (Akt1); endogenous in cells; host or cells: WM115 (ECACC 91061232), insulin-stimulated
How it was run: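 WM115 cells were serum-reduced to 0.1% FBS, stimulated with 100 nM insulin for 10 min, then exposed to compound (0.3% DMSO) for 15 min at 37 °C. Lysates were assayed for Thr308-phosphorylated Akt3 by AlphaScreen SureFire using an isoform-specific total Akt3 capture antibody. IC50 was derived from a 4-parameter fit.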

T6 sequence (Q9Y243 whole entry): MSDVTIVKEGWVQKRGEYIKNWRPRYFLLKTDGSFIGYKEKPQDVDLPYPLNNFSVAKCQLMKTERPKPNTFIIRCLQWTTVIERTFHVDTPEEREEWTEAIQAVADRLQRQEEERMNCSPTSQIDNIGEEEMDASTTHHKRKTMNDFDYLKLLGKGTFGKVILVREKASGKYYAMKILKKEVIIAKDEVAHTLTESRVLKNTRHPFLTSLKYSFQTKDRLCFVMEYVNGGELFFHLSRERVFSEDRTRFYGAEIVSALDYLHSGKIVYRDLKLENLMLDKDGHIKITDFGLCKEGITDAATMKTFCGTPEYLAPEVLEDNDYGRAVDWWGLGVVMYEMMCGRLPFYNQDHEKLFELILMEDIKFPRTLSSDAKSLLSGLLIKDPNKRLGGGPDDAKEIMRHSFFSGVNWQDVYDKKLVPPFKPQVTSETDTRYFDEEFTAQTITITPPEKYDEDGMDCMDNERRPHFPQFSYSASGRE
T3 sequence (Q9Y243 whole entry): as above
T5 sequence (P31751 whole entry): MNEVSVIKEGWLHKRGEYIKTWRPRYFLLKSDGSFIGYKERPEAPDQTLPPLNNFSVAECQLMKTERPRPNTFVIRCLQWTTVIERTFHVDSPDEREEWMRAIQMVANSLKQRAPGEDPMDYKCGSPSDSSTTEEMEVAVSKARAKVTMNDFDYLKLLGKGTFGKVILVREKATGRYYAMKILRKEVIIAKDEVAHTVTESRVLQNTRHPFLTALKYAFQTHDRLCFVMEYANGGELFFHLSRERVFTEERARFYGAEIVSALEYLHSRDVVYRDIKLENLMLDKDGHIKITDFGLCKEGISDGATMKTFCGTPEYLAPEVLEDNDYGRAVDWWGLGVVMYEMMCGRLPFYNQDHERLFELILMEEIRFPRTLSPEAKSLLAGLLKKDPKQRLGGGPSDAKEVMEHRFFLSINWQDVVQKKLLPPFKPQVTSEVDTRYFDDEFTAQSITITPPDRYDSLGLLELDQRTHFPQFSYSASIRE
T2 sequence (P31751 whole entry): as above
T4 sequence (P31749 whole entry): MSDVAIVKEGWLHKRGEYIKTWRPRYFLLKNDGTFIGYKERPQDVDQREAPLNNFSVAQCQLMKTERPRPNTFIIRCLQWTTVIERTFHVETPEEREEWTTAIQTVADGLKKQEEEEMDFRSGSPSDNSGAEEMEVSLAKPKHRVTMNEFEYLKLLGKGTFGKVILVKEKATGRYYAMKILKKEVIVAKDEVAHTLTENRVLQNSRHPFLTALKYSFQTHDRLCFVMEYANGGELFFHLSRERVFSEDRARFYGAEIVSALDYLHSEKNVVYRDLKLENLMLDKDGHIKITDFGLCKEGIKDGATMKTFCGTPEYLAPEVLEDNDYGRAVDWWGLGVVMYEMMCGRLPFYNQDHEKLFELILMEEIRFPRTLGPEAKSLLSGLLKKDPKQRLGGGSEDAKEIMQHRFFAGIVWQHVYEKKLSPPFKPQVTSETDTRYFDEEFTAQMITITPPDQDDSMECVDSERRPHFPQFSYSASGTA
T1 sequence (P31749 whole entry): as above

SMILES | IC50 [1] | IC50 [2] | IC50 [3] | IC50 [4] | IC50 [5] | IC50 [6]
CC(C)(N)c1ccc(-c2ncc(NC(=O)C[C@H]3CC[C@H](N4CCCC4=O)CC3)cc2-c2ccccc2)cc1 [Example 24, N-(6-(4-(2-aminopropan-2-yl)phenyl)-5-phenylpyridin-3-yl)-2-(trans-4-(2-oxopyrrolidin-1-yl)cyclohexyl)acetamide] | > 30000 nM | 10000 nM | 300 nM | > 18000 nM | 6700 nM | 170 nM
CN([C@H]1CC[C@H](CC(=O)Nc2cnc(-c3ccc(C(C)(C)N)cc3)c(-c3ccccc3)c2)CC1)S(C)(=O)=O [Example A25, N-(6-(4-(2-aminopropan-2-yl)phenyl)-5-phenylpyridin-3-yl)-2-(trans-4-(N-methylmethylsulfonamido)cyclo-hexyl)acetamide] | > 30000 nM | 5100 nM | 560 nM | > 15000 nM | 5400 nM | 260 nM
COC(=O)N(C)[C@H]1CC[C@H](CC(=O)Nc2cc(-c3ccccn3)c(-c3ccc(C4(N)CC4)cc3)cn2)CC1 [Example A88, Methyl ((1r,4r)-4-(2-((5′-(4-(1-aminocyclopropyl)phenyl)-[2,4′-bipyridin]-2′-yl)amino)-2-oxoethyl)cyclohexyl)(methyl)carbamate] | > 30000 nM | > 27000 nM | 1400 nM | > 30000 nM | > 30000 nM | 1600 nM
CN(C(=O)C1CC1)[C@H]1CC[C@H](CC(=O)Nc2cnc(-c3ccc(C(C)(C)N)cc3)c(-c3ccccc3)c2)CC1 [Example A29, N-(trans-4-(2-((6-(4-(2-aminopropan-2-yl)phenyl)-5-phenylpyridin-3-yl)amino)-2-oxoethyl)cyclohexyl)-N-methylcyclopropanecarboxamide] | > 30000 nM | 5700 nM | 490 nM | > 28000 nM | 5800 nM | 150 nM
CC(C)(N)c1ccc(-c2cnc(NC(=O)C[C@H]3CC[C@H](N4CCOC4=O)CC3)cc2-c2ccsc2)cc1 [Example A52, N-(5-(4-(2-aminopropan-2-yl)phenyl)-4-(thiophen-3-yl)pyridin-2-yl)-2-(trans-4-(2-oxooxazolidin-3-yl)cyclohexyl)acetamide] | > 30000 nM | 11000 nM | 640 nM | > 30000 nM | 2600 nM | 240 nM
CC(C)(N)c1ccc(-c2nnc(NC(=O)C[C@H]3CC[C@H](N4CCOC4=O)CC3)nc2-c2ccccc2)cc1 [Example 69, N-(6-(4-(2-aminopropan-2-yl)phenyl)-5-phenyl-1,2,4-triazin-3-yl)-2-(trans-4-(2-oxooxazolidin-3-yl)cyclohexyl)acetamide] | > 30000 nM | > 30000 nM | 1800 nM | > 30000 nM | > 30000 nM | 480 nM
CN(C(=O)C1CC1)[C@H]1CC[C@H](CC(=O)Nc2cc(-c3ccccc3)c(-c3ccc(C(C)(C)N)cc3)nn2)CC1 [Example A86, N-(trans-4-(2-((6-(4-(2-aminopropan-2-yl)phenyl)-5-phenylpyridazin-3-yl)amino)-2-oxoethyl)cyclohexyl)-N-methylcyclopropanecarboxamide] | > 30000 nM | 3900 nM | 45 nM | > 21000 nM | 8300 nM | 170 nM
CC(C)(N)c1ccc(-c2ncc(NC(=O)C[C@H]3CC[C@H](NC(=O)CC4CC4)CC3)cc2-c2ccccc2)cc1 [Example 29, N-(6-(4-(2-aminopropan-2-yl)phenyl)-5-phenylpyridin-3-yl)-2-(trans-4-(2-cyclopropylacetamido)cyclohexyl)acetamide] | > 33000 nM | 2200 nM | 53 nM | > 13000 nM | 8400 nM | 170 nM
CC(C)(N)c1ccc(-c2ncc(NC(=O)C[C@H]3CC[C@H](NC(=O)C4CC4)CC3)cc2-c2ccsc2)cc1 [Example 26, N-(trans-4-(2-((6-(4-(2-aminopropan-2-yl)phenyl)-5-(thiophen-3-yl)pyridin-3-yl)amino)-2-oxoethyl)cyclohexyl)cyclopropanecarboxamide] | > 30000 nM | 12000 nM | 1600 nM | > 16000 nM | 9000 nM | 380 nM
CCC(=O)N(C)[C@H]1CC[C@H](CC(=O)Nc2cc(-c3ccccc3)c(-c3ccc(C4(N)CC4)c(F)c3)nn2)CC1 [Example A103, N-(trans-4-(2-((6-(4-(1-aminocyclopropyl)-3-fluorophenyl)-5-phenylpyridazin-3-yl)amino)-2-oxoethyl)cyclohexyl)-N-methylpropionamide] | > 30000 nM | 2300 nM | 110 nM | > 30000 nM | > 30000 nM | 730 nM
COC(=O)N(C)[C@H]1CC[C@H](CC(=O)Nc2cc(-c3ccccc3)c(-c3ccc(C4(N)CC4)c(F)c3)nn2)CC1 [Example A104, Methyl (trans-4-(2-((6-(4-(1-aminocyclopropyl)-3-fluorophenyl)-5-phenylpyridazin-3-yl)amino)-2-oxoethyl)cyclohexyl)(methyl)carbamate] | > 30000 nM | 5600 nM | 200 nM | > 30000 nM | > 30000 nM | 1000 nM

Continued, values first:

IC50 [1] | IC50 [2] | IC50 [3] | IC50 [4] | IC50 [5] | IC50 [6] | SMILES
8900 nM | 1500 nM | 190 nM | > 30000 nM | 9100 nM | 670 nM | COC(=O)N(C(C)C)[C@H]1CC[C@H](CC(=O)Nc2cnc(-c3ccc(C4(N)CCC4)cc3)c(-c3ccccc3)c2)CC1 [Example 51, Methyl (trans-4-(2-((6-(4-(1-aminocyclobutyl)phenyl)-5-phenylpyridin-3-yl)amino)-2-oxoethyl)cyclohexyl)(isopropyl)carbamate]
11000 nM | 190 nM | 7 nM | 2000 nM | 620 nM | 7 nM | CCN(C(=O)OC)[C@H]1CC[C@H](CC(=O)Nc2cc(-c3ccccc3)c(-c3ccc([C@]4(N)C[C@](C)(O)C4)cc3)nn2)CC1 [Example 129, Methyl (trans-4-(2-((6-(4-(trans-1-amino-3-hydroxy-3-methylcyclobutyl)phenyl)-5-phenylpyridazin-3-yl)amino)-2-oxoethyl)cyclohexyl) (ethyl)carbamate]
11000 nM | 370 nM | 75 nM | 3600 nM | 840 nM | 59 nM | CCCC(=O)N[C@H]1CC[C@H](CC(=O)Nc2cnc(-c3ccc(C4(N)CC4)cc3)c(-c3ccccc3)c2)CC1 [Example A41, N-(trans-4-(2-((6-(4-(1-aminocyclopropyl)phenyl)-5-phenylpyridin-3-yl)amino)-2-oxoethyl)cyclohexyl)butyramide]
4100 nM | 140 nM | 16 nM | 1800 nM | 1700 nM | 57 nM | CC(=O)N(C(C)C)[C@H]1CC[C@H](CC(=O)Nc2cc(-c3ccccc3)c(-c3ccc([C@]4(N)C[C@](C)(O)C4)cc3)cn2)CC1 [Example 102, N-(5-(4-(trans-1-amino-3-hydroxy-3-methylcyclobutyl)phenyl)-4-phenylpyridin-2-yl)-2-(trans-4-(N-isopropylacetamido)cyclohexyl)acetamide]
> 23000 nM | 2200 nM | 57 nM | > 30000 nM | 6000 nM | 370 nM | CCOC(=O)N(C)[C@H]1CC[C@H](CC(=O)Nc2cc(-c3ccccc3)c(-c3ccc(C4(N)CC4)cc3)nn2)CC1 [Example A94, Ethyl (trans-4-(2-((6-(4-(1-aminocyclopropyl)phenyl)-5-phenylpyridazin-3-yl)amino)-2-oxoethyl)cyclohexyl)(methyl)carbamate]
